Measured values as given in US20240239755A1, “SUBSTITUTED PYRIDAZINONES, SALTS OR N-OXIDES THEREOF AND THEIR USE AS HERBICIDALLY ACTIVE SUBSTANCES” (Bayer Aktiengesellschaft, priority 2021, published 2024).

Experiments:
Format in all cases: in vivo
Stellaria media (STEME) [1] = test: Herbicidal post-emergence action, 320 g/ha, STEME; settings: visual grading after ca. 3 weeks
Description: (§1) Seeds of mono- and dicotyledonous weed plants were sown in plastic pots (double sowings with one species of mono- and one species of dicotyledonous weed plants per pot), in sandy loam, covered with soil and grown under controlled growth conditions. 2 to 3 weeks after sowing, the test plants were sprayed in the single-leaf stage. The compounds according to the invention, formulated in the form of wettable powders (WP) or as emulsifiable concentrates (EC), were sprayed onto the green plant parts as an aqueous suspension or as an emulsion, with the addition of 0.5% of an additive, at an application rate of 600 litres of water per hectare (converted). The test plants were placed in the greenhouse for ca. 3 weeks under optimum growth conditions, and then the effect of the preparations was assessed visually in comparison with untreated controls (herbicidal effect in percent (%): 100% effect=plants have died, 0% effect=as control plants).
(§2) Tables D1 to D8 below, show the effects of selected compounds of the general formula (I) according to Table 1 on various harmful plants using an application rate corresponding to 320 g/ha obtained by the experimental procedure mentioned above.

Kochia scoparia (KCHSC) [2] = test: Herbicidal pre-emergence action, 1280 g/ha (Table A4); settings: visual grading after ca. 3 weeks vs untreated controls
Description: (§3) Seeds of mono- and dicotyledonous weed plants were sown in plastic pots (double sowings with one species of mono- and one species of dicotyledonous weed plants per pot), in sandy loam, and covered with soil. The compounds according to the invention, formulated in the form of wettable powders (WP) or as emulsifiable concentrates (EC), were applied to the surface of the covering soil as an aqueous suspension or as an emulsion, with the addition of 0.5% of an additive, at an application rate of 600 litres of water per hectare (converted). Following treatment, the pots were placed in a greenhouse and kept under optimum growth conditions for the test plants. The visual grading of the damage to the test plants was carried out after ca. 3 weeks in comparison to untreated controls (herbicidal effect in percent (%): 100% effect=plants have died, 0% effect=as control plants). Tables A1 to A11 below, show the effects of selected compounds of the general formula (I) according to Table 1 on various harmful plants and an application rate corresponding to 1280 g/ha obtained by the experimental procedure mentioned above.

Stellaria media (STEME) [3] = test: Herbicidal post-emergence action, 1280 g/ha (Table B9); settings: visual assessment after ca. 3 weeks vs untreated controls
Description: as §1, with “plants). Tables B1 to B11 below, show the effects of selected compounds of the general formula (I) according to Table 1 on various harmful plants using an application rate corresponding to 1280 g/ha obtained by the experimental procedure mentioned above.” for “plants).”

[4] = test system: Abutilon theophrasti (ABUTH); test: Herbicidal post-emergence action, 1280 g/ha (Table B1); settings: visual assessment after ca. 3 weeks vs untreated controls
Description: as §1, with “plants). Tables B1 to B11 below, show the effects of selected compounds of the general formula (I) according to Table 1 on various harmful plants using an application rate corresponding to 1280 g/ha obtained by the experimental procedure mentioned above.” for “plants).”

[5] = test system: Amaranthus retroflexus (AMARE); test: Herbicidal pre-emergence action, 1280 g/ha (Table A11); settings: visual grading after ca. 3 weeks vs untreated controls
Description: as §3

Kochia scoparia (KCHSC) [6] = test: Herbicidal post-emergence action, 1280 g/ha (Table B4); settings: visual assessment after ca. 3 weeks vs untreated controls
Description: as §1, with “plants). Tables B1 to B11 below, show the effects of selected compounds of the general formula (I) according to Table 1 on various harmful plants using an application rate corresponding to 1280 g/ha obtained by the experimental procedure mentioned above.” for “plants).”

Lolium rigidum (LOLRI) [7] = test: Herbicidal pre-emergence action, 1280 g/ha (Table A5); settings: visual grading after ca. 3 weeks vs untreated controls
Description: as §3

[8] = test system: Matricaria inodora (MATIN); test: Herbicidal pre-emergence action, 1280 g/ha (Table A6); settings: visual grading after ca. 3 weeks vs untreated controls
Description: as §3

Stellaria media (STEME) [9] = test: Herbicidal pre-emergence action, 320 g/ha, STEME; settings: visual grading after ca. 3 weeks
Description: as §3, with “plants).” for “plants). Tables A1 to A11 below, show the effects of selected compounds of the general formula (I) according to Table 1 on various harmful plants and an application rate corresponding to 1280 g/ha obtained by the experimental procedure mentioned above.”
Tables C1 to C6 below, show the effects of selected compounds of the general formula (I) according to Table 1 on various harmful plants using an application rate corresponding to 320 g/ha obtained by the experimental procedure mentioned above.

Stellaria media (STEME) [10] = test: Herbicidal pre-emergence action, 1280 g/ha (Table A9); settings: visual grading after ca. 3 weeks vs untreated controls
Description: as §3

[11] = test system: Amaranthus retroflexus (AMARE); test: Herbicidal post-emergence action, 1280 g/ha, AMARE; settings: visual grading vs untreated controls
Description: as §1
(§4) Tables B1 to B11 below, show the effects of selected compounds of the general formula (I) according to Table 1 on various harmful plants using an application rate corresponding to 1280 g/ha obtained by the experimental procedure mentioned above.

[12] = test system: Amaranthus retroflexus (AMARE); test: Herbicidal post-emergence action, 320 g/ha, AMARE; settings: visual grading after ca. 3 weeks
Description: as §1, §2

[13] = test system: Abutilon theophrasti (ABUTH); test: Herbicidal post-emergence action, 320 g/ha, ABUTH; settings: visual grading after ca. 3 weeks
Description: as §1, §2

Kochia scoparia (KCHSC) [14] = test: Herbicidal post-emergence action, 320 g/ha, KCHSC; settings: visual grading after ca. 3 weeks
Description: as §1, §2

[15] = test system: Matricaria inodora (MATIN); test: Herbicidal post-emergence action, 1280 g/ha (Table B6); settings: visual assessment after ca. 3 weeks vs untreated controls
Description: as §1, with “plants). Tables B1 to B11 below, show the effects of selected compounds of the general formula (I) according to Table 1 on various harmful plants using an application rate corresponding to 1280 g/ha obtained by the experimental procedure mentioned above.” for “plants).”

Veronica persica (VERPE) = test: Herbicidal post-emergence action, 1280 g/ha, VERPE; settings: visual grading vs untreated controls
Description: as §1, §4

Poa annua (POAAN) = test: Herbicidal pre-emergence action, 1280 g/ha (Table A7); settings: visual grading after ca. 3 weeks vs untreated controls
Description: as §3

Lolium rigidum (LOLRI) [16] = test: Herbicidal post-emergence action, 1280 g/ha (Table B5); settings: visual assessment after ca. 3 weeks vs untreated controls
Description: as §1, with “plants). Tables B1 to B11 below, show the effects of selected compounds of the general formula (I) according to Table 1 on various harmful plants using an application rate corresponding to 1280 g/ha obtained by the experimental procedure mentioned above.” for “plants).”

[17] = test system: Abutilon theophrasti (ABUTH); test: Herbicidal pre-emergence action, 1280 g/ha (Table A1); settings: visual grading after ca. 3 weeks vs untreated controls
Description: as §3

[18] = test system: Matricaria inodora (MATIN); test: Herbicidal post-emergence action, 320 g/ha, MATIN; settings: visual grading after ca. 3 weeks
Description: as §1, §2

Lolium rigidum (LOLRI) [19] = test: Herbicidal pre-emergence action, 320 g/ha (Table C2); settings: visual grading after ca. 3 weeks vs untreated controls
Description: as §3, with “Tables C1” for “Tables A1”, “to C6” for “to A11”, “plants using” for “plants and”, “to 320” for “to 1280”

| Compound | herbicidal effect STEME (Stellaria media (STEME) [1]) | herbicidal effect KCHSC (Kochia scoparia (KCHSC) [2]) | herbicidal effect STEME (Stellaria media (STEME) [3]) | herbicidal effect ABUTH [4] | herbicidal effect AMARE [5] | herbicidal effect KCHSC (Kochia scoparia (KCHSC) [6]) | herbicidal effect LOLRI (Lolium rigidum (LOLRI) [7]) | herbicidal effect MATIN [8] | herbicidal effect STEME (Stellaria media (STEME) [9]) | herbicidal effect STEME (Stellaria media (STEME) [10]) | herbicidal effect AMARE [11] | herbicidal effect ABUTH [13] | herbicidal effect KCHSC (Kochia scoparia (KCHSC) [14]) | herbicidal effect MATIN [15] | herbicidal effect VERPE (Veronica persica (VERPE)) | further results |
| --- | --- | --- | --- | --- | --- | --- | --- | --- | --- | --- | --- | --- | --- | --- | --- | --- |
| Cc1nn(C)c(=O)c(Oc2cccc(Cl)c2)c1O [Example I-004] | 90% | 90% | 100% | 90% | 90% | – | – | – | – | – | – | – | – | – | – | – |
| Cc1nn(C)c(=O)c(Oc2ccccc2Br)c1O [Example I-011] | – | 100% | – | – | 100% | 90% | 90% | 90% | 90% | 100% | 90% | – | – | – | – | – |
| Cc1nn(C)c(=O)c(Oc2ccc(Cl)cc2Cl)c1O [Example I-019, 4-(2,4-dichlorophenoxy)-5-hydroxy-2,6-dimethyl-pyridazin-3-one] | – | – | 90% | 90% | – | 90% | 90% | – | – | 100% | 90% | 90% | 90% | 90% | 90% | herbicidal effect AMARE [12]: 90% |
| Cc1nn(C)c(=O)c(Oc2ccccc2F)c1O [Example I-021] | – | – | – | – | – | – | – | – | – | – | – | – | – | – | – | herbicidal effect POAAN (Poa annua (POAAN)): 90% |
| Cc1nn(C)c(=O)c(Oc2ccc(Cl)cc2C2CC2)c1O [Example I-035] | – | 100% | 90% | 90% | 90% | 90% | – | – | – | – | 90% | 90% | – | 90% | 90% | herbicidal effect AMARE [12]: 90% |
| Cc1nn(C)c(=O)c(Oc2ccc(Cl)cc2Cl)c1OC(=O)C(C)(C)C [Example I-049] | – | 90% | – | 90% | – | 90% | – | – | – | 100% | 100% | – | 90% | 90% | 90% | – |
| CCOC(=O)Oc1c(C)nn(C)c(=O)c1Oc1cc(Cl)ccc1C1CC1 [Example I-070] | 90% | – | 100% | 100% | – | – | 100% | 100% | 90% | 90% | 100% | 100% | – | 90% | 90% | herbicidal effect AMARE [12]: 90%; herbicidal effect LOLRI (Lolium rigidum (LOLRI) [16]): 100%; herbicidal effect ABUTH [17]: 100% |
| Cc1nn(C)c(=O)c(Oc2cccc(F)c2C2CC2)c1O [Example I-073] | – | – | 100% | 100% | – | 90% | 90% | 90% | 90% | 90% | 90% | 100% | – | 90% | – | – |
| CCOC(=O)Oc1c(C)nn(C)c(=O)c1Oc1ccccc1OC(F)F [Example I-074] | – | – | 100% | 100% | – | 90% | 90% | – | – | 90% | 100% | – | 90% | 90% | 90% | herbicidal effect LOLRI (Lolium rigidum (LOLRI) [16]): 90% |
| Cc1nn(C)c(=O)c(Oc2cc(F)c(F)cc2Br)c1OC(=O)C(C)C [Example I-094] | – | – | – | 90% | 100% | 90% | – | 100% | – | – | 100% | – | – | 90% | 90% | herbicidal effect MATIN [18]: 90% |
| Cc1nn(C)c(=O)c(Oc2cc(Cl)cc(Cl)c2Cl)c1O [Example I-096] | 90% | – | 100% | – | 90% | – | 90% | 100% | 100% | 100% | 90% | – | – | – | – | herbicidal effect LOLRI (Lolium rigidum (LOLRI) [19]): 90% |
| CCOC(=O)Oc1c(C)nn(C)c(=O)c1Oc1cc(Cl)cc(Cl)c1Cl [Example I-097] | 90% | – | 90% | – | 100% | – | 100% | – | 90% | 100% | 90% | – | – | – | – | herbicidal effect ABUTH [17]: 100% |
| CCOC(=O)Oc1c(C)nn(C)c(=O)c1Oc1cc(F)cc(F)c1Br [Example I-098] | 90% | – | 90% | 90% | 100% | 90% | – | 100% | – | 100% | 100% | – | 90% | 90% | 90% | – |
